Columns and labels:
[1] = target: T1, KARRIKIN INSENSITIVE2 (KAI2) (Arabidopsis thaliana, UniProt Q9SZU7); assay: ITC ([…] °C); supported by CPM thermal shift; assay type: binding
T1 construct: full-length, recombinant from E. coli, His tag removed
T1 sequence (Q9SZU7 1-270): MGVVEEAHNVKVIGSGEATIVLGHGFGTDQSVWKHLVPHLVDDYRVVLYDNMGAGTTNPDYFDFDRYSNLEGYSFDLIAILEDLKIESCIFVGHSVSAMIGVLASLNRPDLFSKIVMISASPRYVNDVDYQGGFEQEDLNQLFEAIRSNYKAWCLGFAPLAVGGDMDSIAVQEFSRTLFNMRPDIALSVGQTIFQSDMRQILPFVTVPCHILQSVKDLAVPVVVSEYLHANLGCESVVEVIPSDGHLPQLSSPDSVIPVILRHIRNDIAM

KAI2^ply2 (KAI2^A219V) = target: T2, KAI2^ply2 (KAI2^A219V) (Arabidopsis thaliana, UniProt Q9SZU7, A219V); assay: ITC ([…] °C); strongly impaired binding, only marginal change in CPM assay
T2 construct: full-length, recombinant from E. coli, His tag removed
T2 sequence (Q9SZU7 whole entry A219V): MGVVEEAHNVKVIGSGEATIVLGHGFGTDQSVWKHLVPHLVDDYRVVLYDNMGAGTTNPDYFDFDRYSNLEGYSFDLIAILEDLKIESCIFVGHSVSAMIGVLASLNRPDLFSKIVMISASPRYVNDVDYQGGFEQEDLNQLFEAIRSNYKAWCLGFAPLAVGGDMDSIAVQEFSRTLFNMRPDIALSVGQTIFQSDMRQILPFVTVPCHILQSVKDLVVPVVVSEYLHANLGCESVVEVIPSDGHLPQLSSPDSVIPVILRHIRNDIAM

Cc1c2ccocc-2oc1=O [KAR1, 3-methyl-2H-furo[2,3-c]pyran-2-one]
Kd [1]: 147 µM
Kd (KAI2^ply2 (KAI2^A219V)): 2860 µM

From article PMC6022639, “A missense allele of KARRIKIN-INSENSITIVE2 impairs ligand-binding and downstream signaling in Arabidopsis thaliana” (Journal of Experimental Botany, 2018)
